The target in one data set is T1, GIPR (Homo sapiens, UniProt P48546).
T1 construct: host or cells: CHO
T1 sequence (P48546 22-466): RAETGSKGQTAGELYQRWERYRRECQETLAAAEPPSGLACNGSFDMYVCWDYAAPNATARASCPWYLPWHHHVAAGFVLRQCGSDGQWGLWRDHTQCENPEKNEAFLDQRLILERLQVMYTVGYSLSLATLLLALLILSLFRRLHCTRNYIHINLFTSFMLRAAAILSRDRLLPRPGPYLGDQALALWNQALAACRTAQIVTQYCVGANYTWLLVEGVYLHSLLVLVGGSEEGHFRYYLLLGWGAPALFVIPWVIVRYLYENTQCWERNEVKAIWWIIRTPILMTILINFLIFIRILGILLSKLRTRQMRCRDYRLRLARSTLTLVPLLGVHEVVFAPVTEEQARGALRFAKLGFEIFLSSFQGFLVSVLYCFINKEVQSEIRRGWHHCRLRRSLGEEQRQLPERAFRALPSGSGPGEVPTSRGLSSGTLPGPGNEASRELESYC
As to the kind of experiment: In vitro GIPR agonistic activity test (cAMP kit). Format: cell-based. The following applies: CHO host cells. How it is done:
The cell lines were constructed by Wuxi […] (Shanghai) Co., Ltd. See details in Table 1 below. […] The test compounds were diluted at a 4-fold dilution factor in 10 points, starting from an initial concentration of 30 μM. The dilution was carried out by Bravo. • 1) 100 nL of compounds were transferred to an OptiPlate-384 plate by Echo. • 2) The OptiPlate-384 plate was centrifuged at 1000 rpm for 5 s. • 1) A GLP-1R/GIPR cell cryovial was placed in warm water at 37° C. for rapid thawing. • 2) The cell suspension was transferred into a 15 mL Transfer centrifugal tube and rinsed with 10 mL of HBSS gently. • 3) The centrifugal tube was centrifuged at 1000 rpm at room temperature for 1 min. • 4) The supernatant was discarded. • 5) The bottom cells were gently dispersed, then gently rinsed with 10 mL of HBSS, the centrifugal tube was centrifuged to settle the cells, and finally the cells were resuspended in an experimental buffer. • 6) Cell density and viability were measured by Vi-cell. • 7) The GLP-1R/GIPR cells were diluted with the experimental buffer to a concentration of 2.0*10^5/mL. • 8) […] of the diluted cell suspension was transferred into the OptiPlate-384 plate. • 9) Incubation was performed at room temperature for 30 min. • 1) 10 μL of 800 nM gradient diluted cAMP standard was added into the empty wells of the OptiPlate-384 plate. • 2) 10 μL of cAMP assay reagent was added. • 3) The OptiPlate-384 plate was covered with TopSeal-A film and incubated at room temperature for 60 min. The TopSeal-A film was removed, and readout was performed on En Vision.

Another data set addresses T2, GLP-1R (Homo sapiens, UniProt P43220).
T2 construct: host or cells: HEK293
As to the kind of experiment: In vitro GLP-1R agonistic activity test (cAMP kit). The following applies: HEK293 host cells. The data set is classed as cell-based. On the procedure:
The cell lines were constructed by Wuxi […] (Shanghai) Co., Ltd. See details in Table 1 below. [table] [table] The test compounds were diluted at a 4-fold dilution factor in 10 points, starting from an initial concentration of 30 μM. The dilution was carried out by Bravo. • 1) 100 nL of compounds were transferred to an OptiPlate-384 plate by Echo. • 2) The OptiPlate-384 plate was centrifuged at 1000 rpm for 5 s. • 1) A GLP-1R/GIPR cell cryovial was placed in warm water at 37° C. for rapid thawing. • 2) The cell suspension was transferred into a 15 mL Transfer centrifugal tube and rinsed with 10 mL of HBSS gently. • 3) The centrifugal tube was centrifuged at 1000 rpm at room temperature for 1 min. • 4) The supernatant was discarded. • 5) The bottom cells were gently dispersed, then gently rinsed with 10 mL of HBSS, the centrifugal tube was centrifuged to settle the cells, and finally the cells were resuspended in an experimental buffer. • 6) Cell density and viability were measured by Vi-cell. • 7) The GLP-1R/GIPR cells were diluted with the experimental buffer to a concentration of 2.0*10^5/mL. • 8) […] of the diluted cell suspension was transferred into the OptiPlate-384 plate. • 9) Incubation was performed at room temperature for 30 min. • 1) 10 μL of 800 nM gradient diluted cAMP standard was added into the empty wells of the OptiPlate-384 plate. • 2) 10 μL of cAMP assay reagent was added. • 3) The OptiPlate-384 plate was covered with TopSeal-A film and incubated at room temperature for 60 min. The TopSeal-A film was removed, and readout was performed on En Vision.

The nature of the next data set: in vivo. Also on record: species or system SD rats. The settings on record: rat, sc, 0.048 mg/kg; for Cmax: Sprague-Dawley. How it is done: The pharmacokinetic characteristics in rodent animals following subcutaneous injection of the compounds were tested using standard protocols. In the experiment, the candidate compounds were formulated into clear solution, which was administered to rats by single subcutaneous injection (SC, 0.048 mpk). The vehicle for injection was citrate buffer solution (20 mM, pH=7). The whole blood was collected and processed to get the plasma. The drug concentration was analyzed by LC-MS/MS, and the pharmacokinetic parameters were calculated using Phoenix WinNonlin software.

A short description of a further data set: in vitro. The data set is classed as in vitro ADME. The following applies: human, plasma. On the procedure: • 1. Before the experiment, the clotted frozen plasma was thawed in a water bath at 37° C. The resulting plasma was centrifuged at 4000 rpm for 5 min. If there is blood clot, remove the clot and adjust the pH to 7.4±0.1. • 2. The test compound solution was prepared by diluting the compounds with DMSO to prepare a solution of 100 μM. • 3. 98 μL of plasma, as a blank control, was added with 2 μL of the test compound solution (100 μM) to get a mixed solution with a final concentration of 2 μM, which was incubated in a water bath at 37° C. • 4. 100 μL of H3PO4 solution and 800 μL of stop solution (a 100% solution of 200 ng/mL tolbutamide and 200 ng/ml labetalol in methanol) were respectively added at each time point (0, 10, 30, 60, and 120 min) to precipitate protein, which was then mixed thoroughly. • 5. The samples were centrifuged at 4000 rpm for 20 min, and 100 μL of supernatant was taken from each well for LC-MS/MS analysis.

T2 sequence (P43220 24-463, species assumed): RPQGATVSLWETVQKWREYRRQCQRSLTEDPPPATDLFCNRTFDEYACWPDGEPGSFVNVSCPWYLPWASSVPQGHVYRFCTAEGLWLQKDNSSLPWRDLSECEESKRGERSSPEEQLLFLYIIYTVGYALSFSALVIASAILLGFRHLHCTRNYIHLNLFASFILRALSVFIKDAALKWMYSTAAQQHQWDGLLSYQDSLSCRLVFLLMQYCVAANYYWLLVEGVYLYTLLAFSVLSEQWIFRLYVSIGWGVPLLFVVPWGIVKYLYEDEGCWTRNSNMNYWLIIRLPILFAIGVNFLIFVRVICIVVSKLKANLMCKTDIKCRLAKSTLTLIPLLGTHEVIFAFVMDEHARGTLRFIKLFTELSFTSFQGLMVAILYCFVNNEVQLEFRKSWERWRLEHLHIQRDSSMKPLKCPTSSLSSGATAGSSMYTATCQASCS

As for `CC[C@H](C)[C@H](NC(=O)[C@H](CC(C)C)NC(=O)[C@H](Cc1c[nH]c2ccccc12)NC(=O)[C@H](CCC(=O)O)NC(=O)[C@@H](NC(=O)[C@H](Cc1ccccc1)NC(=O)[C@H](C)NC(=O)[C@@H]1CCCCNC(=O)CN(C(=O)COCCOCCNC(=O)COCCOCCNC(=O)CC[C@H](NC(=O)CCCCCCCCCCCCCCCCCCC(=O)O)C(=O)O)CC(=O)NCCCC[C@H](NC(=O)[C@H](CCCCN)NC(=O)[C@H](CC(=O)O)NC(=O)[C@H](CC(C)C)NC(=O)C(C)(C)NC(=O)[C@@H](NC(=O)[C@H](CO)NC(=O)[C@H](Cc2ccc(O)cc2)NC(=O)[C@H](CC(=O)O)NC(=O)[C@H](CO)NC(=O)[C@@H](NC(=O)[C@H](Cc2ccccc2)NC(=O)[C@@H](NC(=O)CNC(=O)[C@H](CCC(=O)O)NC(=O)C(C)(C)NC(=O)[C@@H](N)Cc2ccc(O)cc2)[C@@H](C)O)[C@@H](C)O)[C@@H](C)CC)C(=O)N[C@@H](C)C(=O)N[C@@H](CCC(N)=O)C(=O)N1)C(C)C)C(=O)N[C@@H](C)C(=O)NCC(=O)NCC(=O)N1CCC[C@H]1C(=O)N[C@@H](CO)C(=O)N[C@@H](CO)C(=O)NCC(=O)N[C@@H](C)C(=O)N1CCC[C@H]1C(=O)N1CCC[C@H]1C(=O)N1CCC[C@H]1C(=O)N[C@@H](CO)C(N)=O` [WX-005], the EC50 (usually the midpoint of the concentration-response curve) on GIPR (with 1% HSA) was 19.3 nM; at GIPR (without 1% HSA) it was 0.16 nM; at GLP-1R (with 1% HSA), 7.63 nM; at GLP-1R (without 1% HSA), 0.036 nM. The peak level in the data set “in vivo” (Cmax) was 28 nM. The AUC(0-t) (in general, the area under the concentration-time curve up to a stated or last time point) in the data set “in vivo” was determined as 1.15 µM·h. In addition, the Tmax (usually the time at which the peak concentration occurs) in the data set “in vivo” is 16 h. The half-life – broadly, the time in which the quantity being followed falls by half – was 21 h in “in vivo” and > 4.82 h in the data set “in vitro”.

Consider `CC[C@H](C)[C@H](NC(=O)[C@H](CC(C)C)NC(=O)[C@H](Cc1c[nH]c2ccccc12)NC(=O)[C@H](CCC(=O)O)NC(=O)[C@@H](NC(=O)[C@H](Cc1ccccc1)NC(=O)[C@H](CCC(=O)O)NC(=O)[C@@H]1CCCCNC(=O)CN(C(=O)COCCOCCNC(=O)COCCOCCNC(=O)CC[C@H](NC(=O)CCCCCCCCCCCCCCCCCCC(=O)O)C(=O)O)CC(=O)NCCCC[C@H](NC(=O)[C@H](CCCCN)NC(=O)[C@H](CC(=O)O)NC(=O)[C@H](CC(C)C)NC(=O)C(C)(C)NC(=O)[C@@H](NC(=O)[C@H](CO)NC(=O)[C@H](Cc2ccc(O)cc2)NC(=O)[C@H](CC(=O)O)NC(=O)[C@H](CO)NC(=O)[C@@H](NC(=O)[C@H](Cc2ccccc2)NC(=O)[C@@H](NC(=O)CNC(=O)[C@H](CCC(=O)O)NC(=O)C(C)(C)NC(=O)[C@@H](N)Cc2ccc(O)cc2)[C@@H](C)O)[C@@H](C)O)[C@@H](C)CC)C(=O)N[C@@H](C)C(=O)N[C@@H](CCC(N)=O)C(=O)N1)C(C)C)C(=O)N[C@@H](C)C(=O)NCC(=O)NCC(=O)N1CCC[C@H]1C(=O)N[C@@H](CO)C(=O)N[C@@H](CO)C(=O)NCC(=O)N[C@@H](C)C(=O)N1CCC[C@H]1C(=O)N1CCC[C@H]1C(=O)N1CCC[C@H]1C(=O)N[C@@H](CO)C(N)=O` [WX-009], for which the EC50 at GIPR (without 1% HSA) turned out to be 0.074 nM; at GLP-1R (without 1% HSA), 0.014 nM. Besides, the Tmax in “in vivo” (SD) was determined as 20 h. Further, the highest concentration (Cmax) (commonly the highest concentration seen after dosing) in the data set “in vivo” is 24 nM. In addition, the half-life at 2 μM in “in vitro” (pH 7.4) is > 4.82 h.
